In patent US8507535B2 (Hoffmann-La Roche Inc., priority 2010, dated 2013):

Tests used:
human NK3 receptor = human NK3 receptor (Homo sapiens (Human), UniProt P29371); assay: [3H]SR142801 competition binding assay; conditions: membranes from HEK293 cells transiently expressing recombinant human NK3 receptor; [3H]SR142801 radioligand; second half of table, head prints nM; read-out: Ki (nM) hNK3
Method: [^3H]SR142801 Competition Binding Assay
hNK3 receptor binding experiment were performed using [^3H]SR142801 (Catalog No. TRK1035, specific activity: 74.0 Ci/mmol, Amersham, GE Healthcare UK limited, Buckinghamshire, UK) and membrane isolated from HEK293 cells transiently expressing recombinant human NK3 receptor. After thawing, the membrane homogenates were centrifuged at 48,000×g for 10 min at 4° C., the pellets were resuspended in the 50 mM Tris-HCl, 4 mM MnCl2, 1 μM phosphoramidon, 0.1% BSA binding buffer at pH 7.4 to a final assay concentration of 5 μg protein/well. For inhibition experiments, membranes were incubated with [^3H]SR142801 at a concentration equal to KD value of radioligand and 10 concentrations of the inhibitory compound (0.0003-10 μM) (in a total reaction volume of 500 μl) for 75 min at room temperature (RT). At the end of the incubation, membranes were filtered onto unitfilter (96-well white microplate with bonded GF/C filter preincubated 1 h in 0.3% PEI+0.3% BSA, Packard BioScience, Meriden, Conn.) with a Filtermate 196 harvester (Packard BioScience) and washed 4 times with ice-cold 50 mM Tris-HCl, pH 7.4 buffer. Nonspecific binding was measured in the presence of 10 μM SB222200 for both radioligands. The radioactivity on the filter was counted (5 min) on a Packard Top-count microplate scintillation counter with quenching correction after addition of 45 μl of microscint 40 (Can berra Packard S. A., Zurich, Switzerland) and shaking for 1 h. Inhibition curves were fitted according to the Hill equation: y=100/(1+(x/IC50)^nH), where nH=slope factor using Excel-fit 4 software (Microsoft). IC50 values were derived from the inhibition curve and the affinity constant (Ki) values were calculated using the Cheng-Prussoff equation Ki=IC50/(1+[L]/KD) where [L] is the concentration of radioligand and KD is its dissociation constant at the receptor, derived from the saturation isotherm. All experiments were performed in duplicate and the mean±standard error (SEM) of the individual Ki values was calculated.

[1] = phase II trial, cited from earlier work

Sequence of human NK3 receptor (P29371 whole entry): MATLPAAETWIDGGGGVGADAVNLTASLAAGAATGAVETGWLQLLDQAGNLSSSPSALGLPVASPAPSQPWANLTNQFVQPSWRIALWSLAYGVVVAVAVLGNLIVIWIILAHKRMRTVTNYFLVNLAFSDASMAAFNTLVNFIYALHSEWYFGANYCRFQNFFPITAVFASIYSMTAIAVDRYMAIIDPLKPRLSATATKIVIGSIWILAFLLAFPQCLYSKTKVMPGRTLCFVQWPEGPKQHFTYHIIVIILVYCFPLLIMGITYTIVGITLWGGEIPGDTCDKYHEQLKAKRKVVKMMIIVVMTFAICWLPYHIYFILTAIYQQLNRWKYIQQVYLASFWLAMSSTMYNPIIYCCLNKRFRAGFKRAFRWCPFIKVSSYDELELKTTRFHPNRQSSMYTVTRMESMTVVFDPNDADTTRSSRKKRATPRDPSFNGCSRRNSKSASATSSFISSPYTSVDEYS

Compound | Ki (human NK3 receptor) | activity on positive symptoms of schizophrenia ([1]; altered behaviour, delusion, hallucinations, extreme emotions, excited motor activity, incoherent speech) | activity on negative symptoms of schizophrenia ([1]; depression, anhedonia, social isolation, memory and attention deficits)
COc1ccc(N2CCC(C(=O)N3C[C@H](c4ccc(Cl)cc4)[C@@](C)(COc4ccc(Cl)cn4)C3)CC2)nn1 [Example 26, [(3R,4R)-4-(4-Chloro-phenyl)-3-(5-chloro-pyridin-2-yloxymethyl)-3-methyl-pyrrolidin-1-yl]-[1-(6-methoxy-pyridazin-3-yl)-piperidin-4-yl]-methanone] | 11.4 nM |  | 
CC(=O)N(C)C1(c2ccccc2)CCN(CCC[C@]2(c3ccc(Cl)c(Cl)c3)CCCN(C(=O)c3ccccc3)C2)CC1 [SR 142,801, Osanetant] |  | active on positive symptoms of schizophrenia | inactive in the treatment of negative symptoms
